Assays:
asc-1 = target: T1, asc-1 (Rattus norvegicus, UniProt P63116); test: sodium-independent [3H]D-serine transport into rat forebrain synaptosomes; assay type: biochemical; details: inhibition of [3H]D-serine transport, rat brain synaptosomes; means of at least two determinations
T1 construct: from tissue; host or cells: rat forebrain P2 (synaptosome) fraction
T1 sequence (P63116 1-530): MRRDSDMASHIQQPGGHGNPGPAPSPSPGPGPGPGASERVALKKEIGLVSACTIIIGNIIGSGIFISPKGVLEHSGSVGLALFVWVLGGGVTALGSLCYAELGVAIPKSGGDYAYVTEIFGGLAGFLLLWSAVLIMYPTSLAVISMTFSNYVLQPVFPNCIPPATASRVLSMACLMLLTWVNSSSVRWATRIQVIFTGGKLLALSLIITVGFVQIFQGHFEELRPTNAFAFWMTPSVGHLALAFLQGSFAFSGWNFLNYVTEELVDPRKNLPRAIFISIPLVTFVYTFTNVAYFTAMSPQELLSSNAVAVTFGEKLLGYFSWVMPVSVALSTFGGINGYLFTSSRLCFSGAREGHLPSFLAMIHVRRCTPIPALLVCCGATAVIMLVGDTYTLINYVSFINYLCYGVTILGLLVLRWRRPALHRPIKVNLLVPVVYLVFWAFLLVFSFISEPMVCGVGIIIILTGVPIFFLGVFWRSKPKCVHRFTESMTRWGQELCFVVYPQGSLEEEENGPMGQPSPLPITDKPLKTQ
T1 sequence (Q794F9 1-527 partner): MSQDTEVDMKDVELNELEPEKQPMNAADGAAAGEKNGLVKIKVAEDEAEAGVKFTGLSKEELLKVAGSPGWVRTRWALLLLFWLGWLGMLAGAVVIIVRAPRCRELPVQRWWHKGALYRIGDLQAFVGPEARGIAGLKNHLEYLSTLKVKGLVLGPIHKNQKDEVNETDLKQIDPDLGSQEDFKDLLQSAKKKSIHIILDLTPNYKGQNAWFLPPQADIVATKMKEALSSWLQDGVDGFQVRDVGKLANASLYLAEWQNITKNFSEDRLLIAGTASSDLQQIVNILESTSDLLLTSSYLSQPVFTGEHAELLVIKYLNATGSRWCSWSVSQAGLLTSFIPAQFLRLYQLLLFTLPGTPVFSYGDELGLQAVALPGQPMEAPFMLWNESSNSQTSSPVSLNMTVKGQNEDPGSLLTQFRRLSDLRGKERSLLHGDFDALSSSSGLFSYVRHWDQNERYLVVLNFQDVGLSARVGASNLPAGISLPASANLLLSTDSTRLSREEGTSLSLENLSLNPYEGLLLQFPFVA
Procedure: Under the assay conditions used, the sodium-independent transport of D-serine by rodent forebrain synaptosomes is mediated by asc-1 (Rutter et al., 2007), and the sodium-dependent transport of D-serine into astrocytes in culture is mediated by an ASCT transporter, ASCT2 according to the literature (Ribeiro et al., 2002).
Synaptosome assays: a P2 fraction of rat forebrain was prepared and assayed immediately. Aliquots of the P2 preparation (approx. 1 mg of original tissue weight) were incubated in sodium-free assay buffer (CholineCl: 128 mM, KCl: 3.5 mM; KH2PO4: 1.5 mM; MgCl2: 1 mM; CaCl2: 1 mM; glucose: 10 mM; Tris-acetate buffer: 10 mM, pH7.4) containing [^3H]D-serine (final concentration of 50 nM) and test compounds in duplicate for 4 mins at room temperature. The synaptosomes containing radiolabel were collected by filtration onto Whatman GF/C filters, and washed twice with ice cold assay buffer. Filters were solubilized in scintillation fluid and radioactivity determined in a beta counter. IC50 values were determined as described for the cell-based assays above.

pre-pulse inhibition = pre-pulse inhibition (PPI) and startle response; assay type: in vivo, rat; details: D-serine 600 mg/kg, L-4OHPG 15 mg/kg; for effect on the absolute startle response: control experiment
Procedure: Pre-pulse inhibition was measured using the SR-Lab Startle Response system fitted with a rat enclosure. During the acclimation period, each rat (n=8/group) was habituated with a 5 min interval of 65-dB background noise followed by six 120 dB startle pulses alone, each 40 ms long. This acclimation phase was followed by a 15 min PPI test session where rats were presented with 120 dB startle pulses without a pre-pulse (“pulse alone”) or pulses preceded by a 20 ms pre-pulse of 3, 6, or 12 dB above background noise (“PP3”, “PP6”, or “PP12”, respectively) and ended with five 120 dB startle pulses. PPI was recorded for pre-pulse intensities of 3, 6, and 12 dB, and no stimulus. Each pre-pulse trial was administered in pseudorandom order. The 120 dB pulse alone trials were randomly interspersed within the pre-pulse trials and used for comparison with pre-pulse trials. PPI data were calculated as a percentage of PPI by comparing the pulse-alone versus the PP trials using the formula [100−(response to pre-pulse+120 dB)/(response to 120 dB alone)×100]. Experimenter was masked to treatment during testing and analysis.
Data were analyzed with a 2-way ANOVA with Condition and Treatment as factors with post hoc Bonferroni comparisons.

[1] = tested on: amphetamine-induced hyperlocomotion; details: systemic administration; Smith et al, 2009; cited from earlier work

Structure (SMILES) | IC50 (asc-1) | effect on the absolute startle response (pre-pulse inhibition) | effect on amphetamine-induced hyperlocomotion (literature) [1] | effect on PPI (pre-pulse inhibition; PP3, PP6, PP12)
N[C@H](CO)C(=O)O [D-serine] | 9.4 µM | neither L-4OHPG nor D-serine had any significant effect | reduce amphetamine-induced hyperlocomotion | 
N[C@H](C(=O)O)c1ccc(O)cc1 [L-4-hydroxyphenylglycine] | 101 µM | neither L-4OHPG nor D-serine had any significant effect |  | reduced PPI, an effect that reached significance at the PP12 intensity level

Reference: patent US8741955B2, “D-serine transporter inhibitors as pharmaceutical compositions for the treatment of central nervous system disorders” (Allergan, Inc., priority 2011, dated 2014)
